Source: ChEMBL document CHEMBL3045737, “Evaluation of toxicity and genotoxic effects of spinosad and deltamethrin in Drosophila melanogaster and Bactrocera oleae” (Pest Manag Sci, 2011)
Values after ≈ are worked out from the molar mass of the structure shown.

Legend:
Bactrocera oleae [1] = assay: Insecticidal activity against Bactrocera oleae adults assessed as death treated upto 192 hr at 24 +/- 1 degC, 60%RH; format: functional; settings: for LC50: Bactrocera oleae, 192 h
Bactrocera oleae [2] = assay: Insecticidal activity against Bactrocera oleae adults assessed as death treated upto 120 hr at 24 +/- 1 degC, 60%RH; format: functional; settings: for LC50: Bactrocera oleae, 120 h
Bactrocera oleae [3] = assay: Insecticidal activity against Bactrocera oleae adults assessed as death treated upto 24 hr at 24 +/- 1 degC, 60%RH; format: functional; settings: for LC50: Bactrocera oleae, 24 h
Bactrocera oleae [4] = assay: Insecticidal activity against Bactrocera oleae adults assessed as death treated upto 72 hr at 24 +/- 1 degC, 60%RH; format: functional; settings: for LC50: Bactrocera oleae, 72 h
Drosophila melanogaster [5] = assay: Insecticidal activity against Drosophila melanogaster adults assessed as death treated upto 192 hr at 24 +/- 1 degC, 60%RH; format: functional; settings: for LC50: Drosophila melanogaster, 192 h
Drosophila melanogaster [6] = assay: Insecticidal activity against Drosophila melanogaster adults assessed as death treated upto 120 hr at 24 +/- 1 degC, 60%RH; format: functional; settings: for LC50: Drosophila melanogaster, 120 h
Drosophila melanogaster [7] = assay: Insecticidal activity against Drosophila melanogaster adults assessed as death treated upto 24 hr at 24 +/- 1 degC, 60%RH; format: functional; settings: for LC50: Drosophila melanogaster, 24 h
Drosophila melanogaster [8] = assay: Insecticidal activity against Drosophila melanogaster adults assessed as death treated upto 72 hr at 24 +/- 1 degC, 60%RH; format: functional; settings: for LC50: Drosophila melanogaster, 72 h
Drosophila melanogaster [9] = assay: Insecticidal activity against Drosophila melanogaster larvae assessed as death at 24 +/- 1 degC, 60%RH; format: functional; settings: for LC50: Drosophila melanogaster
Drosophila melanogaster [10] = assay: Genotoxicity in Drosophila melanogaster larvae at 0.10 to 0.30 mg/l; format: organism-based; settings: in vivo
Drosophila melanogaster [11] = assay: Genotoxicity in Drosophila melanogaster larvae at 7.50 to 10 mg/l; format: organism-based; settings: in vivo
Drosophila melanogaster [12] = assay: Genotoxicity in Drosophila melanogaster larvae at 10^-3 M; format: organism-based; settings: in vivo, 1000 µM

## CC[C@H]1CCC[C@H](O[C@H]2CC[C@H](N(C)C)[C@@H](C)O2)[C@@H](C)C(=O)C2=C[C@@H]3[C@@H](C=C(C)[C@@H]4C[C@@H](O[C@@H]5O[C@@H](C)[C@H](OC)[C@@H](OC)[C@H]5OC)C[C@@H]34)[C@@H]2CC(=O)O1.CC[C@H]1CCC[C@H](O[C@H]2CC[C@H](N(C)C)[C@@H](C)O2)[C@@H](C)C(=O)C2=C[C@@H]3[C@@H](C=C[C@@H]4C[C@@H](O[C@@H]5O[C@@H](C)[C@H](OC)[C@@H](OC)[C@H]5OC)C[C@@H]34)[C@@H]2CC(=O)O1
Bactrocera oleae [1]
  LC90: 0.345 µg/mL
  LC50: 0.111 µg/mL
Bactrocera oleae [2]
  LC90: 0.422 µg/mL
  LC50: 0.191 µg/mL
Bactrocera oleae [3]
  LC90: 7.277 µg/mL
  LC50: 4.06 µg/mL
Bactrocera oleae [4]
  LC90: 0.598 µg/mL
  LC50: 0.341 µg/mL
Drosophila melanogaster [5]
  LC90: 0.367 µg/mL
  LC50: 0.262 µg/mL
Drosophila melanogaster [6]
  LC90: 1.074 µg/mL
  LC50: 0.75 µg/mL
Drosophila melanogaster [7]
  LC90: 5.604 µg/mL
  LC50: 3.8 µg/mL
Drosophila melanogaster [8]
  LC90: 1.998 µg/mL
  LC50: 1.26 µg/mL
Drosophila melanogaster [9]
  LC90: 0.308 µg/mL
  LC50: 0.13 µg/mL
Drosophila melanogaster [10]
  Activity: Non-toxic

## CC1(C)[C@H](C(=O)O[C@H](C#N)c2cccc(Oc3ccccc3)c2)[C@@H]1C=C(Br)Br [DELTAMETHRIN]
Drosophila melanogaster [11]
  Activity: Non-toxic
Bactrocera oleae [1]
  LC90: 0.398 µg/mL (≈ 0.788 µM)
  LC50: 0.414 µg/mL (≈ 0.819 µM)
Bactrocera oleae [2]
  LC90: 0.161 µg/mL (≈ 0.319 µM)
  LC50: 0.176 µg/mL (≈ 0.348 µM)
Bactrocera oleae [3]
  LC90: 6.033 µg/mL (≈ 11.9 µM)
  LC50: 2.85 µg/mL (≈ 5.64 µM)
Bactrocera oleae [4]
  LC90: 1.002 µg/mL (≈ 1.98 µM)
  LC50: 0.344 µg/mL (≈ 0.681 µM)
Drosophila melanogaster [5]
  LC90: 10.352 µg/mL (≈ 20.5 µM)
  LC50: 4.82 µg/mL (≈ 9.53 µM)
Drosophila melanogaster [6]
  LC90: 13.599 µg/mL (≈ 26.9 µM)
  LC50: 7.24 µg/mL (≈ 14.3 µM)
Drosophila melanogaster [7]
  LC90: 31.682 µg/mL (≈ 62.7 µM)
  LC50: 17.1 µg/mL (≈ 33.8 µM)
Drosophila melanogaster [8]
  LC90: 14.591 µg/mL (≈ 28.9 µM)
  LC50: 8.03 µg/mL (≈ 15.9 µM)
Drosophila melanogaster [9]
  LC90: 17.41 µg/mL (≈ 34.5 µM)
  LC50: 4.96 µg/mL (≈ 9.81 µM)

## CCOS(C)(=O)=O [METHANESULFONIC ACID ETHYL ESTER]
Drosophila melanogaster [12]
  Activity: Toxic
